Tested on: 282377-053-R-J1-PDC complex spheroid viability
Test: Anticancer human tumor 282377-053-R-J1-PDC patient-derived colon adenocarcinoma cell line growth inhibition [POLQ]
Conditions: for IC50: curve of first compound; for viability, T/C: stronger effect = lower value
Procedure: Multicellular complex tumor spheroid response to Polymerase (POL) inhibitors (novobiocin, ART-558, RP6685) in combination with a variety of drugs and investigational agents in selected tumor cell lines
The POL inhibitors (novobiocin, ART-558, and RP6685) were evaluated both individually and in combination with standard of care and investigational anticancer small molecules within a complex spheroid model of solid tumors. . Complex spheroids include a stromal component modeled by human endothelial cells (HUVEC) and fibroblasts modeled by human mesenchymal stem cells (MSCs). The concentration ranges selected for each drug and investigational agent were based upon clinically achievable concentrations if the clinical Cmax of the agent was known.
Compounds. The drugs and investigational agents: novobiocin (NSC847541), ART-558 (NSC835418), RP-6685 (NSC848927), peposertib (NSC802822), ceralasertib (NSC780249), elimusertib (NSC800525), camonsertib (NSC841442), AZD-1390 (NSC803789), olaparib (NSC753686), talazoparib (NSC767125), rucaparib (NSC756644), sotorasib (NSC818433), MRTX-1133 (NSC836407), SN-38 (NSC673596), topotecan (NSC609699), epotoside (NSC141540), doxorubicin (NSC123127), gemcitabine (NSC613327), 5-fluorouracil (NSC19893), paclitaxel (NSC125973), vemurafenib (NSC761431), MSA-2 (NSC828583), SN-011 (NSC837082), adavosertib (NSC754352), prexasertib (NSC758257), carboplatin (NSC241240) and oxaliplatin (NSC266046), were obtained from the National Cancer Institute (NCI) Developmental Therapeutics Program Chemical Repository (21). The FDA-approved anticancer drug set is available from the Developmental Therapeutics Program at https://dtp.cancer.gov/organization/dscb/obtaining/. […] The stock solutions were prepared in dimethyl sulfoxide (DMSO, Sigma-Aldrich, St. Louis, MO, cat. D2650), except for the platinum compounds which were prepared in saline (Quality Biological, Gaithersburg, MD, cat. 114-055-101), at 800-fold the tested concentration and stored at -70 degrees C prior to their use. All drugs and investigational agents were tested over a range starting from a high concentration at or near the clinical Cmax and decreasing in half-log increments. If the clinical Cmax for an agent had not been determined, the highest concentration tested was 10 microM, except for SN-38, which was tested at a high concentration of 1 microM.
Cell Culture. All cells were maintained in an incubator at 37 degrees C and 5% CO2 with 95% humidity. The PDC lines were cultured according to standard operating procedures established by the NCI PDMR (https://pdmr.cancer.gov). Table 3 of the manuscript, lists the cell lines along with the number of the three cell types plated to form the mct-spheroids and media for tumor cell growth. After thawing, all PDC lines, except 997537-175-T-J1-PDC and 415267-285-R-J2-PDC, were cultured in Matrigel-coated flasks prepared with a working solution of 1X Ham's F-12 nutrient mix, without supplementation (Thermo Fisher Scientific, cat. 11765054), 100 U/mL penicillin-streptomycin (Thermo Fisher Scientific, cat. 15140122), and 2.5% Matrigel (Corning Inc., Corning, NY, cat. 354248) for the first three passages. The two PDC lines 997537-175-T-J1-PDC and 415267-285-R-J2-PDC were cultured on uncoated flasks. The 857933-349-R-J2-PDC line was cultured in 6C/Colon 1B media containing advanced DMEM/F-12 (Thermo Fisher Scientific, cat. 12634028), 10 mM HEPES (Thermo Fisher Scientific, cat. 15630080), 1X GlutaMAX supplement (Thermo Fisher Scientific, cat. 35050061), 0.1 mg/mL primocin (InvivoGen, San Diego, CA, cat. ant-pm-2), 10% defined fetal bovine serum, heat inactivated (HyClone Laboratories Inc., Logan, UT, cat. SH30070.03HI), 50% L-WRN conditioned media (ATCC, cat. CRL-3276), 1.25 mM N-Acetyl-L-cysteine (Sigma-Aldrich, cat. A9165), 10 mM nicotinamide (Sigma-Aldrich, cat. N0636), 1X B-27 supplement (Thermo Fisher Scientific, cat. 17504044), 1X N-2 supplement (Thermo Fisher Scientific, cat. […]

[1] = second compound 0.0316 µM, first compound 0.0316 µM
[2] = second compound 0.0316 µM, first compound 0.1 µM
[3] = second compound 0.0316 µM, first compound 0.316 µM
[4] = second compound 0.0316 µM, first compound 1 µM
[5] = second compound 0.0316 µM, first compound 3.16 µM
[6] = second compound 0.0316 µM, first compound 10 µM
[7] = second compound 0.1 µM, first compound 0.0316 µM
[8] = second compound 0.1 µM, first compound 0.1 µM
[9] = second compound 0.1 µM, first compound 0.316 µM
[10] = second compound 0.1 µM, first compound 1 µM
[11] = second compound 0.1 µM, first compound 3.16 µM
[12] = second compound 0.1 µM, first compound 10 µM
[13] = second compound 0.316 µM, first compound 0.0316 µM
[14] = second compound 0.316 µM, first compound 0.1 µM
[15] = second compound 0.316 µM, first compound 0.316 µM
[16] = second compound 0.316 µM, first compound 1 µM
[17] = second compound 0.316 µM, first compound 3.16 µM
[18] = second compound 0.316 µM, first compound 10 µM
[19] = second compound 1 µM, first compound 0.0316 µM
[20] = second compound 1 µM, first compound 0.1 µM
[21] = second compound 1 µM, first compound 0.316 µM
[22] = second compound 1 µM, first compound 1 µM
[23] = second compound 1 µM, first compound 3.16 µM
[24] = second compound 1 µM, first compound 10 µM
[25] = second compound 3.16 µM, first compound 0.0316 µM
[26] = second compound 3.16 µM, first compound 0.1 µM
[27] = second compound 3.16 µM, first compound 0.316 µM
[28] = second compound 3.16 µM, first compound 1 µM
[29] = second compound 3.16 µM, first compound 3.16 µM
[30] = second compound 3.16 µM, first compound 10 µM
[31] = second compound 10 µM, first compound 0.0316 µM
[32] = second compound 10 µM, first compound 0.1 µM
[33] = second compound 10 µM, first compound 0.316 µM
[34] = second compound 10 µM, first compound 1 µM
[35] = second compound 10 µM, first compound 3.16 µM
[36] = second compound 10 µM, first compound 10 µM
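Note: spheroids exposed to compounds for seven days.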
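Throughout, for viability, T/C: 100% = DMSO vehicle control viability.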

`COc1cccc2c1C(=O)c1c(O)c3c(c(O)c1C2=O)CC(O)(C(=O)CO)CC3OC1CC(N)C(O)C(C)O1` (centres undefined) + COC1C(OC(N)=O)C(O)C(Oc2ccc3c(O)c(NC(=O)c4ccc(O)c(CC=C(C)C)c4)c(=O)oc3c2C)OC1(C)C was tested, and the IC50 (second compound 0.0316 µM) was 273 nM, the IC50 (second compound 0.1 µM) was 323 nM and the IC50 (second compound 0.316 µM) was 284 nM. For the same compound, the IC50 (second compound 1 µM) was 386 nM, the IC50 (second compound 3.16 µM) was 289 nM and the IC50 (second compound 10 µM) was 378 nM. It also gave a viability, T/C [1] of 92.3%, a viability, T/C [2] of 81% and a viability, T/C [3] of 43.9%. The viability, T/C [4] was 17.5%, the viability, T/C [5] was 1.11% and the viability, T/C [6] was 2.81%. The viability, T/C [7] was 117%, the viability, T/C [8] was 82.7% and the viability, T/C [9] was 57.6%. It also gave a viability, T/C [10] of 16.5%, a viability, T/C [11] of 0.71% and a viability, T/C [12] of 2.97%. For the same compound, the viability, T/C [13] was 95.5%, the viability, T/C [14] was 84.9% and the viability, T/C [15] was 44.9%. The viability, T/C [16] was 16.1%, the viability, T/C [17] was 0.67% and the viability, T/C [18] was 2.69%. The viability, T/C [19] was 97.1%, the viability, T/C [20] was 88.6% and the viability, T/C [21] was 58%. For the same compound, the viability, T/C [22] was 14.3%, the viability, T/C [23] was 1.36% and the viability, T/C [24] was 2.91%. It also gave a viability, T/C [25] of 90.2%, a viability, T/C [26] of 88.9% and a viability, T/C [27] of 44.8%. The viability, T/C [28] was 13.7%, the viability, T/C [29] was 0.83% and the viability, T/C [30] was 2.03%. It also gave a viability, T/C [31] of 84.4%, a viability, T/C [32] of 76.8% and a viability, T/C [33] of 56.8%. For the same compound, the viability, T/C [34] was 16.3%, the viability, T/C [35] was 2.09% and the viability, T/C [36] was 3.61%.
With `O=c1[nH]cc(F)c(=O)[nH]1` + COC1C(OC(N)=O)C(O)C(Oc2ccc3c(O)c(NC(=O)c4ccc(O)c(CC=C(C)C)c4)c(=O)oc3c2C)OC1(C)C the IC50 (second compound 0.0316 µM) was over 10000 nM, the IC50 (second compound 0.1 µM) was over 10000 nM and the IC50 (second compound 0.316 µM) was over 10000 nM. For the same compound, the IC50 (second compound 1 µM) was over 10000 nM, the IC50 (second compound 3.16 µM) was over 10000 nM and the IC50 (second compound 10 µM) was over 10000 nM. The viability, T/C [1] was 112%, the viability, T/C [2] was 89% and the viability, T/C [3] was 104%. The viability, T/C [4] was 92%, the viability, T/C [5] was 74.6% and the viability, T/C [6] was 66.9%. The viability, T/C [7] was 109%, the viability, T/C [8] was 107% and the viability, T/C [9] was 90.9%. The viability, T/C [10] was 89.7%, the viability, T/C [11] was 72.1% and the viability, T/C [12] was 71%. The viability, T/C [13] was 112%, the viability, T/C [14] was 125% and the viability, T/C [15] was 97.1%. The viability, T/C [16] was 81.5%, the viability, T/C [17] was 77.7% and the viability, T/C [18] was 71.1%. It also gave a viability, T/C [19] of 112%, a viability, T/C [20] of 97.9% and a viability, T/C [21] of 94.4%. For the same compound, the viability, T/C [22] was 86.4%, the viability, T/C [23] was 79.6% and the viability, T/C [24] was 71.2%. It also gave a viability, T/C [25] of 102%, a viability, T/C [26] of 101% and a viability, T/C [27] of 88.1%. It also gave a viability, T/C [28] of 100%, a viability, T/C [29] of 80.7% and a viability, T/C [30] of 66.8%. For the same compound, the viability, T/C [31] was 105%, the viability, T/C [32] was 103% and the viability, T/C [33] was 115%. It also gave a viability, T/C [34] of 98%, a viability, T/C [35] of 82.2% and a viability, T/C [36] of 63.5%.
